Laboratory results from PubChem BioAssay AID210 (DTP/NCI, 2004).
Inconclusive results and toxic doses are left out. How the source made its calls: active means survival T/C of 150% or more; inactive means T/C below 125% in these data.

Tested on: CD2F1 mice, ip Colon 26 adenocarcinoma, median survival T/C
Test: NCI In Vivo Anticancer Drug Screen. Data for tumor model Colon 26 Adenocarcinoma (intraperitoneal) in CD2F1 (CDF1) mice
Conditions: endpoint: median survival time, higher = longer survival
Description: The antitumor activity of compounds was measured in mice bearing transplantable tumors. Survival or tumor size were measured and the results are expressed as the measurement made in the treated group (T) divided by the measurement made in the vehicle treated control group (C). The tumor model used in this assay is Colon 26 Adenocarcinoma (intraperitoneal) in CD2F1 (CDF1) mice

[1] = dose: 25.0 mg/kg/injection, schedule: Q04DX003 (ip), vehicle: saline with Tween-80
[2] = dose: 50.0 mg/kg/injection, schedule: Q04DX003 (ip), vehicle: saline with Tween-80
[3] = dose: 100.0 mg/kg/injection, schedule: Q04DX003 (ip), vehicle: saline with Tween-80

Measured: T/C

CC(=O)Nc1ccc(O)c(O)c1
inactive: dose: 12.5 mg/kg/injection, schedule: Q04DX003 (ip), vehicle: saline with Tween-80 94 % of control | [1] 106 % of control | [2] 96 % of control | [3] 120 % of control | dose: 200.0 mg/kg/injection, schedule: Q04DX003 (ip), vehicle: saline with Tween-80 100 % of control | dose: 400.0 mg/kg/injection, schedule: Q04DX003 (ip), vehicle: saline with Tween-80 108 % of control

C/C=C(\C)C(=O)OC1C(C)C2(O)C(C=C(CO)CC3(O)C(=O)C(C)=CC32)C2C(C)(C)C12OC(=O)CCCCCCCCC (stereo not given)
inactive: dose: 0.03 mg/kg/injection, schedule: Q04DX003 (ip), vehicle: saline + alcohol 93 % of control | dose: 0.06 mg/kg/injection, schedule: Q04DX003 (ip), vehicle: saline + alcohol 86 % of control | dose: 0.13 mg/kg/injection, schedule: Q04DX003 (ip), vehicle: saline + alcohol 90 % of control | dose: 0.25 mg/kg/injection, schedule: Q04DX003 (ip), vehicle: saline + alcohol 86 % of control

CCC[CH2][Hg][Cl]
inactive: dose: 3.12 mg/kg/injection, schedule: Q04DX003 (ip), vehicle: Klucel (hydroxypropylcellulose) (HPC) 98 % of control | dose: 6.25 mg/kg/injection, schedule: Q04DX003 (ip), vehicle: Klucel (hydroxypropylcellulose) (HPC) 93 % of control

COc1cccc2c1C(=O)c1c(O)c3c(c(O)c1C2=O)C[C@@](O)(/C(C)=N\O)C[C@@H]3OC1CC(N)C(O)C(C)O1 (stereo not given in full)
inactive: dose: 10.0 mg/kg/injection, schedule: Q07DX002 (ip), vehicle: saline 105 % of control | dose: 15.0 mg/kg/injection, schedule: Q07DX002 (ip), vehicle: saline 110 % of control | dose: 23.0 mg/kg/injection, schedule: Q07DX002 (ip), vehicle: saline 115 % of control | dose: 35.0 mg/kg/injection, schedule: Q07DX002 (ip), vehicle: saline 119 % of control

COc1cccc2c1C(=O)c1c(O)c3c(c(O)c1C2=O)C[C@@](O)(C(=O)CO)C[C@@H]3OC1CC(N(C)C)C(O)C(C)O1 (stereo not given in full)
inactive: dose: 2.16 mg/kg/injection, schedule: Q04DX003 (ip), vehicle: water 103 % of control | dose: 5.6 mg/kg/injection, schedule: Q07DX003 (iv), vehicle: water 107 % of control | dose: 9.0 mg/kg/injection, schedule: Q07DX003 (iv), vehicle: water 101 % of control | dose: 14.0 mg/kg/injection, schedule: Q07DX003 (iv), vehicle: water 92 % of control

CN(C)C(=O)c1cccc(COc2ccc(N3C(N)=NC(N)=NC3(C)C)cc2Cl)c1
inactive: dose: 24.0 mg/kg/injection, schedule: Q06HX018 (ip), vehicle: saline 96 % of control | dose: 36.0 mg/kg/injection, schedule: Q06HX018 (ip), vehicle: saline 98 % of control

CC(=O)O[C@@H]1[C@@H](O)C2=C3[C@]4(C)[C@@H]1C(C)(C)C(=O)C[C@@H]4[C@]3(O)[C@H](OC(C)=O)[C@@]1(C[C@@H]1C)C2=O
inactive: dose: 6.25 mg/kg/injection, schedule: Q04DX003 (ip), vehicle: distilled water + Tween-80 94 % of control | dose: 6.25 mg/kg/injection, schedule: Q04DX003 (ip), vehicle: saline with Tween-80 106 % of control | dose: 12.5 mg/kg/injection, schedule: Q04DX003 (ip), vehicle: distilled water + Tween-80 106 % of control | dose: 25.0 mg/kg/injection, schedule: Q04DX003 (ip), vehicle: distilled water + Tween-80 106 % of control | [1] 99 % of control | dose: 50.0 mg/kg/injection, schedule: Q04DX003 (ip), vehicle: distilled water + Tween-80 100 % of control | [2] 106 % of control | [3] 106 % of control

COc1cccc2c1C(=O)c1c(O)c3c(c(O)c1C2=O)C[C@@](O)(C(=O)CO)C[C@@H]3OC1CC([N+](C)(C)C)C(O)C(C)O1 (stereo not given in full)
inactive: dose: 5.4 mg/kg/injection, schedule: Q04DX003 (ip), vehicle: water 102 % of control | dose: 9.0 mg/kg/injection, schedule: Q04DX003 (ip), vehicle: water 103 % of control | dose: 15.0 mg/kg/injection, schedule: Q04DX003 (ip), vehicle: water 96 % of control | dose: 25.0 mg/kg/injection, schedule: Q04DX003 (ip), vehicle: water 115 % of control

N[C@H](C(=O)O)[C@@H]1CC(Cl)=NO1
inactive: dose: 1.0 mg/kg/injection, schedule: Q04DX003 (ip), vehicle: saline 102 % of control | dose: 2.0 mg/kg/injection, schedule: Q04DX003 (ip), vehicle: saline 105 % of control | dose: 4.0 mg/kg/injection, schedule: Q04DX003 (ip), vehicle: saline 107 % of control | dose: 8.0 mg/kg/injection, schedule: Q04DX003 (ip), vehicle: saline 103 % of control | dose: 16.0 mg/kg/injection, schedule: Q04DX003 (ip), vehicle: saline 110 % of control | dose: 32.0 mg/kg/injection, schedule: Q04DX003 (ip), vehicle: saline 107 % of control
